Laboratory results: patent publication US9611252B2 (LifeSci Pharmaceuticals, Inc., priority 2013, dated 2017)
Where two headings read alike, the source gives them in different places.

Key:
[1] = target: human Plasma Kallikrein (Homo sapiens (Human), UniProt P03952); assay: In vitro enzyme inhibition of human plasma kallikrein (PFR-AMC cleavage); assay type: biochemical; conditions: human plasma kallikrein, Pro-Phe-Arg-AMC substrate, 37° C.; read-out: hPK IC50
Procedure, shortened: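 Compound pre-incubated with human plasma kallikrein 5 min at 37° C in 50 mM Tris-HCl pH 7.5, 150 mM NaCl, 0.01% Triton X-100. Reaction started with PFR-AMC, cleavage read kinetically at 37° C every 43 s for 1 h.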

[2] = target: kallikrein (Homo sapiens (Human), UniProt P03952); assay: In vitro cellular assay (contact assay): kallikrein activity in ellagic acid-activated human plasma, substrate Z-FR-2-AMC; assay type: biochemical
Chain of kallikrein (P03952 20-638): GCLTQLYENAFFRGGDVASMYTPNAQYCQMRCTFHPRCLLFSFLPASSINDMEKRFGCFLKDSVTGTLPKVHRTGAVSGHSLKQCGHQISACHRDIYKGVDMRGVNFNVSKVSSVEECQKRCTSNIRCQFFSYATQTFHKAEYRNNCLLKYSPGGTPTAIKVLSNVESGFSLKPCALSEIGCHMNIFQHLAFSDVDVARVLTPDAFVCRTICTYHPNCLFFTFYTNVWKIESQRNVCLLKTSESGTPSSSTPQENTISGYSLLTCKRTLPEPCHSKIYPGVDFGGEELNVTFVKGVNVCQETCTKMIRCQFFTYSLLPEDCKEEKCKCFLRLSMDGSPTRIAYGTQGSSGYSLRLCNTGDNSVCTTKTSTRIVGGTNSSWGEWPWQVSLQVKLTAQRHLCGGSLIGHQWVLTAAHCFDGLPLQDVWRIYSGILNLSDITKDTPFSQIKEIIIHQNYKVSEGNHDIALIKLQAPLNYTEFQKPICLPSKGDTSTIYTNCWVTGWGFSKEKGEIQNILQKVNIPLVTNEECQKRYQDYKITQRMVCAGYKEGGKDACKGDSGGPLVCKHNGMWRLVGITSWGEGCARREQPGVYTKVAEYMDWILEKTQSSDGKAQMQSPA
Method: The ability of the compounds disclosed herein to inhibit cellular kallikrein activity was quantified and the respective EC50 value was determined.
All dilutions were prepared in an assay buffer comprising 50 mM Tris-HCl pH 7.2, 150 mM NaCl, and 0.01% Triton X-100.
The ten solutions of the test compounds, prepared by serial dilution, were further diluted 50-fold in the assay buffer.
Human plasma is thawed on ice and centrifuged for 15 min at 4° C. to remove platelets. A 1 mM stock solution of ellagic acid is diluted to 8 μM and mixed with human plasma, after removing platelets, at a ratio of 1:0.8.
A 22.5 μL volume of the final mixture of human plasma and ellagic acid was added to a 96-well microwell plate and the plate was incubated for 15 min at 37° C.
The CINH inhibitor at various concentrations, prepared by serial dilutions as described above, were added to the inhibitor control wells. […] Each CINH concentration is tested in duplicates.
The test compounds at various concentrations, also prepared by serial dilutions as described above, are added to the test wells. […] Each test compound concentration was tested in duplicates.
In addition to the inhibitor control and test wells, the 96 well assay plate includes positive control wells which contained the mixture of human plasma and ellagic acid without C1NH inhibitor or test compounds, and background wells which contained neither the mixture of human plasma and ellagic acid nor the test compounds. The total volume of liquid in positive control and background wells was brought up to 35 μL, using the assay buffer.
The assay plate containing C1NH inhibitors and test compounds mixed with human plasma and ellagic acid and appropriate controls was incubated at 37° C. for 5 min. […] The reagents were mixed well by shaking the plate gently for 30 sec.
The enzyme reaction was quantified by immediate kinetic reading of the assay plate using excitation/emission wavelengths of 330 nm/440 nm respectively. Fluorescence intensity was recorded for 60 min, using a time interval of 43 sec.
The inhibition activity of the test compounds were evaluated using the IC50 values, calculated according to the dose-response curve of the test compounds, fitted using the “log(inhibitor)-response (variable slope)” equation in GraphPadPrism software (GraphPad Software, Inc.).
The percentage inhibition was calculated using the following equation:
[formula] where, Mean(BG) is the average value of the fluorescence intensity of the background wells and Mean(PC) is the average value of the fluorescence intensity of the positive control wells.
Table 4 provides the EC50 values of various compounds disclosed herein.

[3] = human plasma activated with ellagic acid, Z-FR-2-AMC substrate, 37° C., read-out: Contact Assay EC50

Chain of human Plasma Kallikrein (P03952 20-638): as above

Structure (SMILES) | IC50 [1] [nM] | EC50 [2, 3] [nM] | EC50 [2] [nM]
NC(=O)c1cc(Cc2cc(C(=O)NCc3cnc4[nH]cc(Cl)c4c3)ccn2)cc2cc(Cl)cnc12 [Example 61, 3-chloro-6-((4-(((3-chloro-1H-pyrrolo[2,3-b]pyridin-5-yl)methyl)carbamoyl)pyridin-2-yl)methyl)quinoline-8-carboxamide] | < 100 | 100 to 1000 | –
Cc1nc(N)ccc1CNC(=O)c1ccnc(Cc2cc(C(N)=O)c3ncc(Cl)cc3c2)c1 [Example 62, 6-((4-(((6-amino-2-methylpyridin-3-yl)methyl)carbamoyl)pyridin-2-yl)methyl)-3-chloroquinoline-8-carboxamide] | < 100 | < 100 | –
NC(=O)c1cc(Cc2cc(C(=O)NCc3n[nH]c4ccc(Cl)cc34)ccn2)cc2cc(Cl)cnc12 [Example 60, 3-chloro-6-((4-(((5-chloro-1H-indazol-3-yl)methyl)carbamoyl)pyridin-2-yl)methyl)quinoline-8-carboxamide] | < 100 | 100 to 1000 | –
N#Cc1cc(Cc2cc(C(=O)NCc3ccc4c(N)nccc4c3)ccn2)cc2cc(Cl)cnc12 [Example 57, N-(1-amino-isoquinolin-6-ylmethyl)-2-(3-chloro-8-cyano-quinolin-6-ylmethyl)-isonicotinamide] | < 100 | – | 100 to 1000
Cc1cc(N)nc(C)c1CNC(=O)c1ccnc(Cc2cc(F)c3ncc(Cl)cc3c2)c1 [Example 89, N-(6-amino-2,4-dimethyl-pyridin-3-ylmethyl)-2-(3-chloro-8-fluoro-quinolin-6-ylmethyl)-isonicotinamide] | < 100 | < 100 | –
Cc1cnc2c(S(C)(=O)=O)cc(Cc3cc(C(=O)NCc4cnc5[nH]cc(Cl)c5c4)ccn3)cc2c1 [Example 19, N-((3-chloro-1H-pyrrolo[2,3-b]pyridin-5-yl)methyl)-2-((3-methyl-8-(methylsulfonyl)quinolin-6-yl)methyl)isonicotinamide] | < 100 | < 100 | –
O=C(NCc1cnc2[nH]cc(Cl)c2c1)c1ccnc(Cc2ccc3ncc(Cl)cc3c2)c1 [Example 38, N-(3-Chloro-1H-pyrrolo[2,3-b]pyridin-5-ylmethyl)-2-(3-chloro-quinolin-6-ylmethyl)-isonicotinamide] | < 100 | 100 to 1000 | –
Cc1ccc2cc(Cc3cc(C(=O)NCc4ccc5c(N)nccc5c4)ccn3)ccc2n1 [Example 111, N-((1-aminoisoquinolin-6-yl)methyl)-2-((2-methylquinolin-6-yl)methyl)isonicotinamide] | < 100 | 100 to 1000 | –
NC(=O)c1cc(Cc2cc(C(=O)NCc3ccc4c(N)nccc4c3)ccn2)cc2cc(Cl)cnc12 [Example 64, 6-((4-(((1-aminoisoquinolin-6-yl)methyl)carbamoyl)pyridin-2-yl)methyl)-3-chloroquinoline-8-carboxamide] | < 100 | < 100 | –
Cc1cnc2c(C#N)cc(Cc3cc(C(=O)NCc4cnc5[nH]cc(Cl)c5c4)ccn3)cc2c1 [Example 73, N-((3-chloro-1H-pyrrolo[2,3-b]pyridin-5-yl)methyl)-2-((8-cyano-3-methylquinolin-6-yl)methyl)isonicotinamide] | < 100 | 100 to 1000 | –
O=C(NCc1ccc2[nH]cc(Cl)c2c1F)c1ccnc(Cc2ccc3ncc(Cl)cc3c2)c1 [Example 40, N-(3-Chloro-4-fluoro-1H-indol-5-ylmethyl)-2-(3-chloro-quinolin-6-ylmethyl)-isonicotinamide] | < 100 | 100 to 1000 | –

Second part, led by results:

IC50 [1] [nM] | EC50 [2, 3] [nM] | Structure (SMILES) | EC50 [2] [nM]
< 100 | < 100 | Cc1cnc2c(C#N)cc(Cc3cc(C(=O)NCc4ccc5c(N)nccc5c4)ccn3)cc2c1 [Example 71, N-((1-aminoisoquinolin-6-yl)methyl)-2-((8-cyano-3-methylquinolin-6-yl)methyl)isonicotinamide] | –
< 100 | < 100 | Cc1cnc2c(S(C)(=O)=O)cc(Cc3cc(C(=O)NCc4ccc5c(N)nccc5c4)ccn3)cc2c1 [Example 16, N-((1-aminoisoquinolin-6-yl)methyl)-2-((3-methyl-8-(methylsulfonyl)quinolin-6-yl)methyl)isonicotinamide] | –
< 100 | < 100 | Nc1nccc2cc(CNC(=O)c3ccnc(Cc4ccc5ncc(Cl)cc5c4)c3)ccc12 [Example 31, N-((1-aminoisoquinolin-6-yl)methyl)-2-((3-chloroquinolin-6-yl)methyl)isonicotinamide] | –
< 100 | < 100 | Cc1cnc2c(S(C)(=O)=O)cc(Cc3cc(C(=O)NCc4n[nH]c5ccc(Cl)cc45)ccn3)cc2c1 [Example 20, N-((5-chloro-1H-indazol-3-yl)methyl)-2-((3-methyl-8-(methylsulfonyl)quinolin-6-yl)methyl)isonicotinamide] | –
< 100 | < 100 | Cc1cnc2c(C(N)=O)cc(Cc3cc(C(=O)NCc4c(C)cc(N)nc4C)ccn3)cc2c1 [Example 77, 6-((4-(((6-amino-2,4-dimethylpyridin-3-yl)methyl)carbamoyl)pyridin-2-yl)methyl)-3-methylquinoline-8-carboxamide] | –
< 100 | 100 to 1000 | O=C(NCc1cc2c(Cl)c[nH]c2cc1F)c1ccnc(Cc2ccc3ncc(Cl)cc3c2)c1 [Example 33, N-((3-chloro-6-fluoro-1H-indol-5-yl)methyl)-2-((3-chloroquinolin-6-yl)methyl)isonicotinamide] | –
< 100 | 100 to 1000 | Cc1cnc2c(C#N)cc(Cc3cc(C(=O)NCc4cc5c(Cl)c[nH]c5cc4F)ccn3)cc2c1 [Example 72, N-((3-chloro-6-fluoro-1H-indol-5-yl)methyl)-2-((8-cyano-3-methylquinolin-6-yl)methyl)isonicotinamide] | –
< 100 | 100 to 1000 | Cc1cnc2c(C(N)=O)cc(Cc3cc(C(=O)NCc4ccc5[nH]cc(Cl)c5c4F)ccn3)cc2c1 [Example 81, 6-((4-(((3-chloro-4-fluoro-1H-indol-5-yl)methyl)carbamoyl)pyridin-2-yl)methyl)-3-methylquinoline-8-carboxamide] | –
< 100 | < 100 | Cc1cc(N)nc(C)c1CNC(=O)c1ccnc(Cc2cc(Cl)c3ncc(Cl)cc3c2)c1 [Example 100, N-((6-amino-2,4-dimethylpyridin-3-yl)methyl)-2-((3,8-dichloroquinolin-6-yl)methyl)isonicotinamide] | –
< 100 | < 100 | Nc1nccc2cc(CNC(=O)c3ccnc(Cc4cnc5ccc(F)cc5c4)c3)ccc12 [Example 118, N-((1-aminoisoquinolin-6-yl)methyl)-2-((6-fluoroquinolin-3-yl)methyl)isonicotinamide] | –
< 100 | < 100 | Cc1cnc2ccc(Cc3cc(C(=O)NCc4c(C)cc(N)nc4C)ccn3)cc2c1 [Example 144, N-((6-amino-2,4-dimethylpyridin-3-yl)methyl)-2-((3-methylquinolin-6-yl)methyl)isonicotinamide] | –
< 100 | < 100 | Cc1nc(N)ccc1CNC(=O)c1ccnc(Cc2ccc3ncc(Cl)cc3c2)c1 [Example 34, N-((6-amino-2-methylpyridin-3-yl)methyl)-2-((3-chloroquinolin-6-yl)methyl)isonicotinamide] | –
< 100 | < 100 | Cc1cc2cc(Cc3cc(C(=O)NCc4c(C)cc(N)nc4C)ccn3)ccc2cn1 [Example 145, N-((6-amino-2,4-dimethylpyridin-3-yl)methyl)-2-((3-methylisoquinolin-6-yl)methyl)isonicotinamide] | –
< 100 | < 100 | Cc1cnc2c(S(C)(=O)=O)cc(Cc3cc(C(=O)NCc4c(C)cc(N)nc4C)ccn3)cc2c1 [Example 15, N-((6-amino-2,4-dimethylpyridin-3-yl)methyl)-2-((3-methyl-8-(methylsulfonyl)quinolin-6-yl)methyl)isonicotinamide] | –
< 100 | < 100 | Cc1cnc2c(C(=O)O)cc(Cc3cc(C(=O)NCc4c(C)cc(N)nc4C)ccn3)cc2c1 [Example 84, 6-((4-(((6-amino-2,4-dimethylpyridin-3-yl)methyl)carbamoyl)pyridin-2-yl)methyl)-3-methylquinoline-8-carboxylic acid] | –
